Where a name gives a salt, the structure may show the parent alone. Read-outs that look alike come from different tables or passages of the source.
Columns and labels:
[1] = biological target: T1, SARS-CoV-2 PLpro (nsp3 1564–1878) (Severe acute respiratory syndrome coronavirus 2, UniProt P0DTD1); test: biochemical; parameters: FRET-quenched peptide (Pro3) cleavage by PLpro, 10 min pre-incubation, slope over 20 min, normalised to no-compound control; conditions: low concentration screen, read-out: % of control remaining
[2] = biological target: T1, SARS-CoV-2 PLpro (nsp3 1564–1878); test: biochemical; parameters: FRET-quenched peptide (Pro3) cleavage by PLpro, 10 min pre-incubation, slope over 20 min, normalised to no-compound control; conditions: high concentration screen, read-out: % of control remaining
Description: The plates were organized with columns 3–22 containing the compounds; the remaining columns were used for reaction controls including substrate only and substrate with enzyme but no compound (Figure 3Aii). The PLpro enzyme was pre-incubated with the compounds for 10 min, and then the reaction was initiated by the addition of substrate. […] We incubated the inhibitors with PLpro before the enzymatic reaction so that the slow-binding inhibitors will not be missed out [21]. […] Fluorescence was read on a Spark multimode microplate reader (Tecan) with an excitation wavelength at 330 nm and emission wavelength at 420 nm. […] An amount of 5 µl of the enzyme was pre-incubated with compounds for 10 min before the addition of 15 µl substrate. Fluorescence was monitored at 2 min for 20 min with 3 min intervals giving a total of seven readings.

C=C(c1ccc(C(=O)O)cc1)c1cc2c(cc1C)C(C)(C)CCC2(C)C [Bexarotene]
remaining activity at 1.25 µM ([1]; Well no.=1814): 93.1%
remaining activity at 3.75 µM ([2]; Well no.=1814): 94.9%

COc1ccccc1Oc1c(NS(=O)(=O)c2ccc(C(C)(C)C)cc2)nc(-c2ncccn2)nc1OCCO [Bosentan (hydrate)]
remaining activity at 1.25 µM ([1]; Well no.=6461): 102%
remaining activity at 3.75 µM ([2]; Well no.=6461): 101%

CCN(CC)CCCCNc1ncc2cc(-c3cc(OC)cc(OC)c3)c(NC(=O)NC(C)(C)C)nc2n1 [PD173074]
remaining activity at 1.25 µM ([1]; Well no.=4767): 104%
remaining activity at 3.75 µM ([2]; Well no.=4767): 108%

Cc1ccc(-c2nc(N)nc3c2nnn3Cc2cccc(CO[C@H]3CCOC3)n2)o1 [CPI-444]
remaining activity at 1.25 µM ([1]; Well no.=8549): 105%
remaining activity at 3.75 µM ([2]; Well no.=8549): 97%

Nc1ccccc1NC(=O)CCCCCCC(=O)Nc1ccccc1 [BML-210]
remaining activity at 1.25 µM ([1]; Well no.=5799): 105%
remaining activity at 3.75 µM ([2]; Well no.=5799): 104%

CS(=O)(=O)c1ccc(-c2cc(Br)sc2-c2ccc(F)cc2)cc1 [DuP 697]
remaining activity at 1.25 µM ([1]; Well no.=499): 105%
remaining activity at 3.75 µM ([2]; Well no.=499): 107%

O=C(O)CCC(=O)Nc1ccc(S(=O)(=O)Nc2nccs2)cc1 [Succinylsulfathiazole]
remaining activity at 1.25 µM ([1]; Well no.=8034): 89.3%
remaining activity at 3.75 µM ([2]; Well no.=8034): 89.7%

O=C(O)C1=CO[C@@H](O[C@@H]2O[C@H](CO)[C@@H](O)[C@H](O)[C@H]2O)[C@@H]2C(CO)=CC[C@H]12 [Geniposidic acid]
remaining activity at 1.25 µM ([1]; Well no.=5236): 95.4%
remaining activity at 3.75 µM ([2]; Well no.=5236): 95.9%

O=C(COc1ccc(C(=O)c2ccccc2)cc1)NC1CCN(Cc2ccccc2)CC1 [2-(4-benzoylphenoxy)-N-(1-benzyl-4-piperidinyl)acetamide]
remaining activity at 1.25 µM ([1]; Well no.=5650): 101%
remaining activity at 3.75 µM ([2]; Well no.=5650): 98.9%

Cc1ccccc1C(C(=O)NC1CCCCC1)N(C(=O)Cn1ccnc1C)c1cccc(F)c1 (stereo not shown) [N-cyclohexyl-2-(N-(3-fluorophenyl)-2-(2-methyl-1H-imidazol-1-yl)acetamido)-2-(o-tolyl)acetamide]
remaining activity at 1.25 µM ([1]; Well no.=5600): 93.6%
remaining activity at 3.75 µM ([2]; Well no.=5600): 95.4%

O=S(=O)(O)c1cc(O)c2c(N=Nc3c(S(=O)(=O)O)cc4cc(S(=O)(=O)O)cc(O)c4c3O)cc(S(=O)(=O)O)cc2c1 [Beryllon II]
remaining activity at 1.25 µM ([1]; Well no.=7982): 92.8%
remaining activity at 3.75 µM ([2]; Well no.=7982): 93.7%

N=C(N)NCCC[C@H](N)C(=O)O [L-Arginine HCl]
remaining activity at 1.25 µM ([1]; Well no.=4987): 100%
remaining activity at 3.75 µM ([2]; Well no.=4987): 100%

NC(Cc1cc(O)c(O)cc1O)C(=O)O (racemic) [6-Hydroxy-DL-DOPA]
remaining activity at 1.25 µM ([1]; Well no.=752): 88.3%
remaining activity at 3.75 µM ([2]; Well no.=752): 89.4%

CC1(C)CCC2=C(O1)c1ccccc1C(=O)C2=O [_-Lapachone]
remaining activity at 1.25 µM ([1]; Well no.=6166): 104%
remaining activity at 3.75 µM ([2]; Well no.=6166): 79.2%

C=C1C[C@@]2(O)O[C@@]3(C[C@H]2C(C)C)[C@@H](C)CC[C@@H]13 [Curcumol]
remaining activity at 1.25 µM ([1]; Well no.=5202): 90.5%
remaining activity at 3.75 µM ([2]; Well no.=5202): 85.6%

CCCCC/C=C\C\C=C/C=C/C=C/[C@@H](SC[C@H](N)C(=O)NCC(=O)O)[C@@H](O)CCCC(=O)O [Leukotriene D4]
remaining activity at 1.25 µM ([1]; Well no.=4431): 100%
remaining activity at 3.75 µM ([2]; Well no.=4431): 98.6%

N=C(N)SCCc1ccc(CCSC(=N)N)cc1 [1,4-PBIT dihydrobromide]
remaining activity at 1.25 µM ([1]; Well no.=1255): 104%
remaining activity at 3.75 µM ([2]; Well no.=1255): 105%

c1coc(CNc2ncnc3[nH]cnc23)c1 [Kinetin]
remaining activity at 1.25 µM ([1]; Well no.=3358): 95.6%
remaining activity at 3.75 µM ([2]; Well no.=3358): 97.3%

COc1ccc(-c2nn3c(-c4ccccn4)nnc3s2)cc1OC [Cardionogen-2]
remaining activity at 1.25 µM ([1]; Well no.=5937): 102%
remaining activity at 3.75 µM ([2]; Well no.=5937): 99.4%

CC(c1cc2ccccc2s1)N(O)C(N)=O (stereo not shown) [Zileuton]
remaining activity at 1.25 µM ([1]; Well no.=1764): 102%
remaining activity at 3.75 µM ([2]; Well no.=1764): 100%

CC1(C)CCC(C)(C)c2cc(C3(c4ccc(C(=O)O)cc4)OCCO3)ccc21 [SR11237]
remaining activity at 1.25 µM ([1]; Well no.=5768): 96%
remaining activity at 3.75 µM ([2]; Well no.=5768): 90.6%

CC#CC(=O)Nc1cc2c(Nc3ccc(F)c(Cl)c3)ncnc2cn1 [EGFR/ErbB-2/ErbB-4 Inhibitor]
remaining activity at 1.25 µM ([1]; Well no.=2405): 102%
remaining activity at 3.75 µM ([2]; Well no.=2405): 105%

CC[C@@H](C(N)=O)N1CCCC1=O [Levetiracetam]
remaining activity at 1.25 µM ([1]; Well no.=1820): 96.8%
remaining activity at 3.75 µM ([2]; Well no.=1820): 94.4%
